From ChEMBL document CHEMBL1201862, “PubChem BioAssay data set” (2004)
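Method: 48-hour compound exposure of cells in 96-well plates, five concentrations, linear interpolation of endpoints. GI50 = concentration required for 50% inhibition of growth.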 Activity calls are given as the source filed them. No stated cut-off is given here; in the data, active = GI50 up to about 1.1 µM and inactive = higher.

Experiments:
Assay in all cases: DTP human tumour cell line panel, 48 h
[1] = tested on: HCC 2998
[2] = tested on: Hs-578T
[3] = tested on: IGROV-1
[4] = tested on: LOX IMVI
[5] = tested on: M14
[6] = tested on: Malme-3M
[7] = tested on: NCI-H23
[8] = tested on: PC-3
[9] = tested on: RXF 393
[10] = tested on: SF-268
[11] = tested on: SF-295
[12] = tested on: SF-539
[13] = tested on: SNB-75
[14] = tested on: SR
[15] = tested on: SW-620
[16] = tested on: T47D
[17] = tested on: UACC-257
[18] = tested on: CCRF-CEM
[19] = tested on: UO-31

Row | SMILES | GI50 [1] | GI50 [2] | GI50 [3] | GI50 [4] | GI50 [5] | GI50 [6] | GI50 [7] | GI50 [8] | GI50 [9] | GI50 [10] | GI50 [11] | GI50 [12] | GI50 [13] | GI50 [14] | GI50 [15] | GI50 [16] | GI50 [17] | GI50 [18] | GI50 [19]
1 | O=Cc1c2c(cc3c1CC1(C3)Cc3cc4c(c(C=O)c3C1)CCCC4)CCCC2 | 29.4 µM (inactive) | > 31.6 µM (inactive) | 23 µM (inactive) | 23.6 µM (inactive) | > 31.6 µM (inactive) | > 31.6 µM (inactive) | 27.5 µM (inactive) | 19.9 µM (inactive) | > 31.6 µM (inactive) | > 100 µM (inactive) | 20.6 µM (inactive) | > 31.6 µM (inactive) | > 100 µM (inactive) | 10.1 µM (inactive) | 89.3 µM (inactive) | > 31.6 µM (inactive) | > 31.6 µM (inactive) |  | 
2 | CC1(c2ccc[n+](Cc3ccccc3)c2)OCCO1 | > 100 µM (inactive) |  | > 100 µM (inactive) | > 100 µM (inactive) | > 100 µM (inactive) | > 100 µM (inactive) | > 100 µM (inactive) |  | > 100 µM (inactive) |  | > 100 µM (inactive) | > 100 µM (inactive) | > 100 µM (inactive) | > 100 µM (inactive) | > 100 µM (inactive) |  | > 100 µM (inactive) | > 100 µM (inactive) | > 100 µM (inactive)
3 | Cc1ccccc1NC(=O)c1c(C)oc2c1C(=O)c1ccccc1C2=O | 51.5 µM (inactive) |  | > 71.9 µM (inactive) | 16 µM (inactive) | 20.9 µM (inactive) | 10.2 µM (inactive) | 29.7 µM (inactive) |  | > 100 µM (inactive) | 31.8 µM (inactive) | 40.3 µM (inactive) | 25.9 µM (inactive) | 39.7 µM (inactive) | 26.1 µM (inactive) | 19.7 µM (inactive) |  | 21.4 µM (inactive) | 19.4 µM (inactive) | > 85.3 µM (inactive)
4 | C[C@]12CCC(O)CC1=CC[C@@H]1[C@@H]2CC[C@]2(C)C(O)[C@H](n3ccnc3)C[C@@H]12 (some centres undefined) |  | > 100 µM (inactive) | > 100 µM (inactive) | 39.2 µM (inactive) | > 100 µM (inactive) | > 100 µM (inactive) | 19.5 µM (inactive) | 41.5 µM (inactive) | 55.1 µM (inactive) | > 100 µM (inactive) | 52 µM (inactive) | 64.1 µM (inactive) | > 100 µM (inactive) | 13.1 µM (inactive) | > 100 µM (inactive) |  | 28.2 µM (inactive) | 17.9 µM (inactive) | > 100 µM (inactive)
5 | O=C1C(Cl)=C(Cl)C(=O)C(CCNc2nccs2)=C1Cl | > 100 µM (inactive) | 33.5 µM (inactive) | 14.8 µM (inactive) |  | 20.2 µM (inactive) | 20.4 µM (inactive) | 31.2 µM (inactive) | 18.5 µM (inactive) | 22.4 µM (inactive) | 38.6 µM (inactive) | > 100 µM (inactive) | 33.7 µM (inactive) | 23.3 µM (inactive) | 47.2 µM (inactive) | 29.4 µM (inactive) | 43.5 µM (inactive) | 21.1 µM (inactive) | 0.335 µM (active) | 21.2 µM (inactive)
6 | CC(NC(=O)OC(C)(C)C)C(=O)C(N)=O (centres undefined) | > 100 µM (inactive) | > 100 µM (inactive) |  | > 100 µM (inactive) | > 100 µM (inactive) |  | > 100 µM (inactive) | > 100 µM (inactive) |  | > 100 µM (inactive) |  | > 100 µM (inactive) | > 100 µM (inactive) | 38.6 µM (inactive) | > 100 µM (inactive) | > 100 µM (inactive) |  | > 100 µM (inactive) | > 100 µM (inactive)
7 | O=C1C=C(Nc2ccc(S(=O)(=O)Nc3ncccn3)cc2)c2ccccc2C1=O | 18 µM (inactive) |  | 26.5 µM (inactive) | 15.8 µM (inactive) | 18.2 µM (inactive) | 23.9 µM (inactive) | 17.4 µM (inactive) |  | 23.3 µM (inactive) | 28.5 µM (inactive) | 20.6 µM (inactive) | 27.3 µM (inactive) | 25.1 µM (inactive) | 8.53 µM (inactive) | 19.5 µM (inactive) |  | 20.1 µM (inactive) | 26.3 µM (inactive) | 24 µM (inactive)
8 | CCCNC1=C(C(=O)OCC)C(=O)CO1 | > 100 µM (inactive) |  | > 100 µM (inactive) | > 100 µM (inactive) | > 100 µM (inactive) | > 100 µM (inactive) | > 100 µM (inactive) |  | > 100 µM (inactive) | > 100 µM (inactive) | > 100 µM (inactive) | > 100 µM (inactive) | > 100 µM (inactive) | > 100 µM (inactive) | > 100 µM (inactive) |  | > 100 µM (inactive) | > 100 µM (inactive) | > 100 µM (inactive)
